Test results as given in patent US8871751B2, “Compositions and methods relating to nuclear hormone and steroid hormone receptors including inhibitors of estrogen receptor alpha-mediated gene expression and inhibition of breast cancer” (The Board of Trustees of the University of Illinois, priority 2008, dated 2014).

What was measured:
[1] = test system: ERα negative MDA-MB-231 cells; assay: MDA-MB-231 cell growth / toxicity assay (MTS); format: cell-based, human
Experimental: ERα negative MDA-MB-231 human breast cancer cells were used to test for generalized toxicity of the test compounds. To parallel the reporter gene assays in stably transfected T47D breast cancer cells, 5,000 MDA-MB-231 cells per well were plated in a 96 well plate. The cells were maintained in the medium described above for the T47D cells. One day after plating, the same concentration of test compound used in the reporter gene assay (up to 30 μM) was added. After 24 h the MTS assay was carried out as described above. A more stringent toxicity assay parallels the assay for inhibition of estrogen-dependent growth of BG-1 cells. 250 MDA-MB-231 cells were plated per well and maintained and assayed as described for the BG-1 cells. Several compounds without detectable toxicity in the 24-h assay inhibited MDA-MB-231 cell growth in the 5-6 day assay.
Assays for Cell Growth and Viability. Cells were maintained in the media listed above containing CD-treated serum for at least 4 days prior to the experiment. To minimize cell aggregation, MCF-7 cells were harvested in 10 mM Hepes, pH 7.4, 1 mM EDTA. Other cell lines were harvested in trypsin-EDTA. 1,000 cells were plated into each well of a 96 well plate. For slow growing ZR-75 cells, 2,000 cells were plated/well. The cells were maintained in medium containing CD-treated serum for 24 hours. At 24 hours the medium was changed and E2 and DMSO vehicle or TPSF in DMSO was added. The medium was replaced after 2 days (except for BT474 cells whose medium was not changed). After 4 days viable cells were determined using a cell viability test, Promega CellTiter 96 Aqueous One Solution Cell Proliferation Assay (MTS) (Promega, Wis.).

ER negative HeLa cells = conditions: 10-20 μM; cited from earlier work
GR = target: T1, GR (Rattus norvegicus, UniProt P06536); assay: GR transactivation, MMTV-luciferase reporter in T47D cells; format: cell-based, human
T1 construct: expressed in transfected cells; host or cells: T47D/A1-2
T1 sequence (P06536 1-795): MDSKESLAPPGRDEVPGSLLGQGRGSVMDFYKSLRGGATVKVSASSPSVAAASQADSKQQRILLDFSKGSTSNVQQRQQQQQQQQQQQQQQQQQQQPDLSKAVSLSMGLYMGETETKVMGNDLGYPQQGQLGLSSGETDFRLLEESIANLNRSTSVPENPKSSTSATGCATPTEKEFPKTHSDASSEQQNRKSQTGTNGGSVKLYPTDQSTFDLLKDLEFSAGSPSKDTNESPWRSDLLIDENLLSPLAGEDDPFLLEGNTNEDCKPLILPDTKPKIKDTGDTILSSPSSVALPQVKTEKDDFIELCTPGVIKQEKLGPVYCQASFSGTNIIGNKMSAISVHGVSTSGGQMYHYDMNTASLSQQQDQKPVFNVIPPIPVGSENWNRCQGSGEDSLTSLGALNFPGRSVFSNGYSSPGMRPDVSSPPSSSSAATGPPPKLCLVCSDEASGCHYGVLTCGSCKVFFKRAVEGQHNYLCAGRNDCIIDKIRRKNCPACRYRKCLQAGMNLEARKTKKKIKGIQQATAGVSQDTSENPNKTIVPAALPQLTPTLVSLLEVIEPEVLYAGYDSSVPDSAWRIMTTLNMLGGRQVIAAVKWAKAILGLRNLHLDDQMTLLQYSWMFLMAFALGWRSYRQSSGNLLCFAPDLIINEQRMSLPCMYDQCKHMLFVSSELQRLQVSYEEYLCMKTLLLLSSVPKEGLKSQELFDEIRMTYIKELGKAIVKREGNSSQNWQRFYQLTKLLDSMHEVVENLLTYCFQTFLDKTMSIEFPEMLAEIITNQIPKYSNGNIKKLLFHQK
Experimental: The T47D-KBluc cells stably express an (ERE)3-luciferase reporter gene (38). Cells were maintained in phenol red-free RPMI 1640 with 2 mM L-glutamine, 1.5 g/l sodium bicarbonate, 4.5 g/l glucose, 10 mM Hepes, pH 7.5, 1 mM sodium pyruvate, 10% FBS (Atlanta Biological, Atlanta, Ga.) and antibiotics. Four days before E2 induction, the cells were switched to the above medium, with 10% 2× charcoal-dextran-treated calf serum instead of FBS. 200,000 cells/well were transferred to each well of a 24-well plate. After 24 h the indicated concentrations of the test compounds were added in DMSO and E2 was added to 20 pM. After 24 h cells were washed once in PBS, and 150 μl 1× Passive Lysis Buffer (Promega, Madison Wis.) was used to lyse the cells. Luciferase activity was determined using firefly luciferase reagents from Promega (Madison, Wis.). T47D cells stably transfected to express GR and a mouse mammary tumor virus luciferase reporter that responds to liganded GR and PR were maintained and assayed in medium containing 5 nM progesterone for PR assays, or 2.5 nM dexamethsaone for GR assays, essentially as described (39).
Reporter Gene Assays. TPSF was identified by reporter gene assays comparing the ability of ˜200 compounds structurally related to TPBM (see reference 19) to inhibit transcription of a stably transfected (ERE)3-luciferase reporter gene in T47D-KBluc breast cancer cells (20). AR was assayed in stably transfected HeLa cells and GR was assayed in stably transfected T47D cells maintained as described above. Four days before each experiment the cells were switched to medium containing CD-treated serum as described above. The HeLaAR cells were plated at 100,000 cells/well and the T47D/A1-2 and T47D-KBluc cells were plated at 200,000 cells/well in 1 ml of their respective media in 24-well plates. After 24 hours the indicated concentrations of E2, dihydrotestosterone (DHT) or dexamethasone (Dex) and DMSO vehicle, with or without TPSF, were added to each well. After 24 hours, the cells were washed once in phosphate buffered saline and lysed using 100 μl of 1× Passive Lysis Buffer (Promega, Madison Wis.). Luciferase activity was determined using BrightGlo firefly luciferase reagent from Promega (Madison, Wis.).

[2] = Short-term mouse toxicity study; format: in vivo; conditions: up to 400 mg/kg
ZR-75 cells = conditions: 5 μM; see Wang 2006; cited from earlier work
BT474 cells = conditions: 5 μM; see Wang 2006; cited from earlier work

4-hydroxytamoxifen [OHT, reference compound]
effect on MDA-MB-231 cells ([1]; 10 μM): killed many
effect on MDA-MB-231 cells ([1]; 20 μM): all the cells were killed
effect in ER negative HeLa cells (ER negative HeLa cells): induce caspase-dependent apoptosis

Cn1c(=O)c2[nH]c(Cc3ccc4ccccc4c3)nc2n(C)c1=O [Compound 14147]
effect on GR (GR): virtually no effect

CCCCCCCc1nc2c([nH]1)c(=O)n(C)c(=O)n2C [Compound 101794]
toxicity in a short-term mouse study [2]: no toxicity

O=C(c1ccc(OCCN2CCCCC2)cc1)c1c(-c2ccc(O)cc2)sc2cc(O)ccc12 [raloxifene]
effect in ER negative HeLa cells (ER negative HeLa cells): induce caspase-dependent apoptosis

disulfide benzamide [DIBA]
inhibition of growth of ZR-75 cells (ZR-75 cells): ~20%
effect on growth of tamoxifen-resistant BT474 cells (BT474 cells): did not inhibit
